# Key:
# barnyardgrass [1] = assay: Test A pre-/postemergence herbicide test; type: in vivo, Echinochloa crus-galli
# How it was run: (§1)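 Greenhouse pot test with pre- and postemergence application of surfactant-containing solvent formulations. Postemergence plants were 2–10 cm, one- to two-leaf stage. Response scored visually after ~10 days, 0 (no effect) to 100 (complete control).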
# giant foxtail = assay: Test A pre-/postemergence herbicide test; type: in vivo, Setaria faberii
# How it was run: as §1
# pigweed = assay: Test A pre-/postemergence herbicide test; type: in vivo, Amaranthus retroflexus
# How it was run: as §1
# galium = assay: Test C pre-/postemergence herbicide test; type: in vivo, Galium aparine; conditions: Preemergence; for Plant response rating, Galium: 125 g ai/ha, scale 0 to 100; for Plant response rating (scale of 0 to 100), Galium: 250 g ai/ha
# How it was run: (§2)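 Greenhouse pots; formulation = non-phytotoxic solvent mix + surfactant. PRE onto seeds in loam:sand; POST at 1–4 leaves (2–18 cm) in peat moss/vermiculite medium. Read-out: visual % control vs untreated, day 13–15.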
# crabgrass, large = assay: Test C pre-/postemergence herbicide test; type: in vivo, Digitaria sanguinalis
# How it was run: as §2
# foxtail, giant = assay: Test C pre-/postemergence herbicide test; type: in vivo, Setaria faberii
# How it was run: as §2
# lambsquarters = assay: Test C pre-/postemergence herbicide test; type: in vivo, Chenopodium album
# How it was run: as §2
# morningglory = assay: Test C pre-/postemergence herbicide test; type: in vivo, Ipomoea coccinea
# How it was run: as §2
# barnyardgrass [2] = assay: Test C pre-/postemergence herbicide test; type: in vivo, Echinochloa crus-galli
# How it was run: as §2
# waterhemp = assay: Test C pre-/postemergence herbicide test; type: in vivo, Amaranthus rudis
# How it was run: as §2
# oat, wild = assay: Test C pre-/postemergence herbicide test; type: in vivo, Avena fatua; conditions: Postemergence
# How it was run: as §2
# velvetleaf = assay: Test C pre-/postemergence herbicide test; type: in vivo, Abutilon theophrasti
# How it was run: as §2
# [3] = Postemergence, 125 g ai/ha, visual rating on 0 to 100 scale (0 no effect, 100 complete control), approx. 10 days
# [4] = Postemergence, 500 g ai/ha, 0 to 100 scale (0 no effect, 100 complete control)
# [5] = Preemergence, 125 g ai/ha, 0 to 100 scale where 0 is no effect and 100 is complete control
# [6] = Preemergence, 500 g ai/ha, visual rating on 0 to 100 scale (0 no effect, 100 complete control)
# [7] = 31 g ai/ha, scale 0 to 100, 0 is no effect and 100 is complete control
# [8] = 62 g ai/ha, scale 0 to 100 (0 no effect, 100 complete control)
# [9] = Postemergence, 31 g ai/ha, scale 0 to 100 (0 no effect, 100 complete control)
# [10] = Postemergence, 62 g ai/ha, scale 0 (no effect) to 100 (complete control)
# [11] = Postemergence, 125 g ai/ha, scale 0 to 100 (0 no effect, 100 complete control)
# [12] = Postemergence, 250 g ai/ha, scale 0 to 100 (0 no effect, 100 complete control)
# [13] = Preemergence, 31 g ai/ha, scale 0 to 100, 0 is no effect and 100 is complete control
# [14] = Preemergence, 62 g ai/ha, scale 0 to 100 (0 no effect, 100 complete control)
# [15] = Preemergence, 125 g ai/ha, scale 0 to 100
# [16] = Preemergence, 125 g ai/ha, scale 0 to 100 (0 no effect, 100 complete control)
# [17] = 31 g ai/ha, scale 0 to 100 (0 no effect, 100 complete control)
# [18] = 62 g ai/ha, scale 0 (no effect) to 100 (complete control)
# [19] = 125 g ai/ha, scale 0 to 100 (0 no effect, 100 complete control)
# [20] = 250 g ai/ha, scale 0 to 100 (0 no effect, 100 complete control)
smiles,measurement,setting,value
O=C1NCC(c2cccc(C(F)(F)F)c2)C1C(=O)Nc1ccccc1Cl (stereo not shown) [Compound 312],"Plant response rating, Barnyardgrass",barnyardgrass [1]; [3],80
same,"Plant response rating, Barnyardgrass",barnyardgrass [1]; [4],90
same,"Plant response rating, Barnyardgrass",barnyardgrass [1]; [5],80
same,Barnyardgrass plant response rating,barnyardgrass [1]; [6],90
same,"Plant response rating, Foxtail, Giant",giant foxtail; [3],80
same,"Plant response rating, Foxtail, Giant",giant foxtail; [4],90
same,"Plant response rating, Foxtail, Giant",giant foxtail; [5],90
same,"Foxtail, Giant plant response rating",giant foxtail; [6],90
same,"Plant response rating, Pigweed",pigweed; [3],20
same,"Plant response rating, Pigweed",pigweed; [4],30
same,"Plant response rating, Pigweed",pigweed; [5],0
same,Pigweed plant response rating,pigweed; [6],20
same,Galium plant response rating,galium; [7],90
same,Galium plant response rating,galium; [8],0
same,"Plant response rating, Galium",galium,5
same,"Plant response rating (scale of 0 to 100), Galium",galium,80
same,"Plant response rating, Crabgrass, Large","crabgrass, large; [9]",25
same,"Plant response rating, Crabgrass, Large","crabgrass, large; [10]",50
same,"Plant response rating, Crabgrass, Large","crabgrass, large; [11]",80
same,"Plant response rating, Crabgrass, Large","crabgrass, large; [12]",90
same,"Crabgrass, Large plant response rating","crabgrass, large; [13]",90
same,"Crabgrass, Large plant response rating","crabgrass, large; [14]",95
same,"Plant response rating, Crabgrass, Large","crabgrass, large; [15]",95
same,"Plant response rating (scale of 0 to 100), Crabgrass, Large","crabgrass, large; Preemergence, 250 g ai/ha",95
same,"Plant response rating, Foxtail, Giant","foxtail, giant; [9]",55
same,"Plant response rating, Foxtail, Giant","foxtail, giant; [10]",75
same,"Plant response rating, Foxtail, Giant","foxtail, giant; [11]",75
same,"Plant response rating, Foxtail, Giant","foxtail, giant; [12]",80
same,"Foxtail, Giant plant response rating","foxtail, giant; [13]",90
same,"Foxtail, Giant plant response rating","foxtail, giant; [14]",90
same,"Plant response rating, Foxtail, Giant","foxtail, giant; [15]",90
same,"Plant response rating (scale of 0 to 100), Foxtail, Giant","foxtail, giant; Preemergence, 250 g ai/ha",95
same,"Plant response rating, Lambsquarters",lambsquarters; [9],65
same,"Plant response rating, Lambsquarters",lambsquarters; [10],75
same,"Plant response rating, Lambsquarters",lambsquarters; [11],95
same,"Plant response rating, Lambsquarters",lambsquarters; [12],55
same,Lambsquarters plant response rating,lambsquarters; [13],0
same,Lambsquarters plant response rating,lambsquarters; [14],0
same,"Plant response rating, Lambsquarters",lambsquarters; [15],50
same,"Plant response rating (scale of 0 to 100), Lambsquarters","lambsquarters; Preemergence, 250 g ai/ha",60
same,"Plant response rating, Morningglory",morningglory; [9],0
same,"Plant response rating, Morningglory",morningglory; [10],0
same,"Plant response rating, Morningglory",morningglory; [11],10
same,"Plant response rating, Morningglory",morningglory; [12],20
same,Morningglory plant response rating,morningglory; [13],0
same,Morningglory plant response rating,morningglory; [14],35
same,"Plant response rating, Morningglory",morningglory; [15],40
same,"Plant response rating (scale of 0 to 100), Morningglory","morningglory; Preemergence, 250 g ai/ha",55
same,"Plant response rating, Barnyardgrass",barnyardgrass [2]; [9],40
same,"Plant response rating, Barnyardgrass",barnyardgrass [2]; [10],70
same,"Plant response rating, Barnyardgrass",barnyardgrass [2]; [11],70
same,"Plant response rating, Barnyardgrass",barnyardgrass [2]; [12],75
same,Barnyardgrass plant response rating,barnyardgrass [2]; [13],85
same,Barnyardgrass plant response rating,barnyardgrass [2]; [14],90
same,"Plant response rating, Barnyardgrass",barnyardgrass [2]; [16],90
same,"Plant response rating (scale of 0 to 100; 0 is no effect, 100 is complete control), Barnyardgrass","barnyardgrass [2]; Preemergence, 250 g ai/ha",95
same,"Plant response rating, Waterhemp",waterhemp; [9],0
same,"Plant response rating, Waterhemp",waterhemp; [10],45
same,"Plant response rating, Waterhemp",waterhemp; [11],20
same,"Plant response rating, Waterhemp",waterhemp; [12],20
same,Waterhemp plant response rating,waterhemp; [14],45
same,"Plant response rating, Waterhemp",waterhemp; [15],65
same,"Plant response rating (scale of 0 to 100), Waterhemp","waterhemp; Preemergence, 250 g ai/ha",80
same,"Plant response rating, Oat, Wild","oat, wild; [17]",0
same,"Plant response rating, Oat, Wild","oat, wild; [18]",0
same,"Plant response rating, Oat, Wild","oat, wild; [19]",0
same,"Plant response rating, Oat, Wild","oat, wild; [20]",0
same,"Plant response rating, Velvetleaf",velvetleaf; [9],30
same,"Plant response rating, Velvetleaf",velvetleaf; [10],0
same,"Plant response rating, Velvetleaf",velvetleaf; [11],0
same,"Plant response rating, Velvetleaf",velvetleaf; [12],35
same,Velvetleaf plant response rating,velvetleaf; [14],15
same,"Plant response rating, Velvetleaf",velvetleaf; [15],20
same,"Plant response rating (scale of 0 to 100), Velvetleaf","velvetleaf; Preemergence, 250 g ai/ha",40
O=C1NCC(c2cccc(C(F)(F)F)c2)C1C(=O)Nc1ccc(F)c(F)c1F (stereo not shown) [Compound 315],"Plant response rating, Barnyardgrass",barnyardgrass [1]; [3],90
same,"Plant response rating, Barnyardgrass",barnyardgrass [1]; [4],90
same,"Plant response rating, Barnyardgrass",barnyardgrass [1]; [5],90
same,Barnyardgrass plant response rating,barnyardgrass [1]; [6],90
same,"Plant response rating, Foxtail, Giant",giant foxtail; [3],90
same,"Plant response rating, Foxtail, Giant",giant foxtail; [4],90
same,"Plant response rating, Foxtail, Giant",giant foxtail; [5],90
same,"Foxtail, Giant plant response rating",giant foxtail; [6],90
same,"Plant response rating, Pigweed",pigweed; [3],30
same,"Plant response rating, Pigweed",pigweed; [4],50
same,"Plant response rating, Pigweed",pigweed; [5],30
same,Pigweed plant response rating,pigweed; [6],30
same,Galium plant response rating,galium; [7],90
same,Galium plant response rating,galium; [8],80
same,"Plant response rating, Galium",galium,80
same,"Plant response rating (scale of 0 to 100), Galium",galium,90
same,"Plant response rating, Crabgrass, Large","crabgrass, large; [9]",55
same,"Plant response rating, Crabgrass, Large","crabgrass, large; [10]",65
same,"Plant response rating, Crabgrass, Large","crabgrass, large; [11]",70
same,"Plant response rating, Crabgrass, Large","crabgrass, large; [12]",75
same,"Crabgrass, Large plant response rating","crabgrass, large; [13]",90
same,"Crabgrass, Large plant response rating","crabgrass, large; [14]",95
same,"Plant response rating, Crabgrass, Large","crabgrass, large; [15]",95
same,"Plant response rating (scale of 0 to 100), Crabgrass, Large","crabgrass, large; Preemergence, 250 g ai/ha",98
same,"Plant response rating, Foxtail, Giant","foxtail, giant; [9]",0
same,"Plant response rating, Foxtail, Giant","foxtail, giant; [10]",40
same,"Plant response rating, Foxtail, Giant","foxtail, giant; [11]",85
same,"Plant response rating, Foxtail, Giant","foxtail, giant; [12]",85
same,"Foxtail, Giant plant response rating","foxtail, giant; [13]",90
same,"Foxtail, Giant plant response rating","foxtail, giant; [14]",90
same,"Plant response rating, Foxtail, Giant","foxtail, giant; [15]",95
same,"Plant response rating (scale of 0 to 100), Foxtail, Giant","foxtail, giant; Preemergence, 250 g ai/ha",98
same,"Plant response rating, Lambsquarters",lambsquarters; [9],60
same,"Plant response rating, Lambsquarters",lambsquarters; [10],60
same,"Plant response rating, Lambsquarters",lambsquarters; [11],65
same,"Plant response rating, Lambsquarters",lambsquarters; [12],80
same,Lambsquarters plant response rating,lambsquarters; [13],40
same,Lambsquarters plant response rating,lambsquarters; [14],40
same,"Plant response rating, Lambsquarters",lambsquarters; [15],70
same,"Plant response rating (scale of 0 to 100), Lambsquarters","lambsquarters; Preemergence, 250 g ai/ha",80
same,"Plant response rating, Morningglory",morningglory; [9],25
same,"Plant response rating, Morningglory",morningglory; [10],65
same,"Plant response rating, Morningglory",morningglory; [11],35
same,"Plant response rating, Morningglory",morningglory; [12],10
same,Morningglory plant response rating,morningglory; [13],20
same,Morningglory plant response rating,morningglory; [14],25
same,"Plant response rating, Morningglory",morningglory; [15],35
same,"Plant response rating (scale of 0 to 100), Morningglory","morningglory; Preemergence, 250 g ai/ha",45
same,"Plant response rating, Barnyardgrass",barnyardgrass [2]; [9],25
same,"Plant response rating, Barnyardgrass",barnyardgrass [2]; [10],65
same,"Plant response rating, Barnyardgrass",barnyardgrass [2]; [11],70
same,"Plant response rating, Barnyardgrass",barnyardgrass [2]; [12],85
same,Barnyardgrass plant response rating,barnyardgrass [2]; [13],90
same,Barnyardgrass plant response rating,barnyardgrass [2]; [14],90
same,"Plant response rating, Barnyardgrass",barnyardgrass [2]; [16],90
same,"Plant response rating (scale of 0 to 100; 0 is no effect, 100 is complete control), Barnyardgrass","barnyardgrass [2]; Preemergence, 250 g ai/ha",95
same,"Plant response rating, Waterhemp",waterhemp; [9],50
same,"Plant response rating, Waterhemp",waterhemp; [10],60
same,"Plant response rating, Waterhemp",waterhemp; [11],60
same,"Plant response rating, Waterhemp",waterhemp; [12],65
same,Waterhemp plant response rating,waterhemp; [14],75
same,"Plant response rating, Waterhemp",waterhemp; [15],85
same,"Plant response rating (scale of 0 to 100), Waterhemp","waterhemp; Preemergence, 250 g ai/ha",85
same,"Plant response rating, Oat, Wild","oat, wild; [17]",0
same,"Plant response rating, Oat, Wild","oat, wild; [18]",0
same,"Plant response rating, Oat, Wild","oat, wild; [19]",0
same,"Plant response rating, Oat, Wild","oat, wild; [20]",0
same,"Plant response rating, Velvetleaf",velvetleaf; [9],10
same,"Plant response rating, Velvetleaf",velvetleaf; [10],25
same,"Plant response rating, Velvetleaf",velvetleaf; [11],30
same,"Plant response rating, Velvetleaf",velvetleaf; [12],55
same,Velvetleaf plant response rating,velvetleaf; [14],30
same,"Plant response rating, Velvetleaf",velvetleaf; [15],40
same,"Plant response rating (scale of 0 to 100), Velvetleaf","velvetleaf; Preemergence, 250 g ai/ha",50

# From patent publication US10294202B2, “Pyrrolidinones as herbicides” (FMC Corporation, priority 2013, dated 2019)
